# Data as given in US20230255943A1, “MMP-9 AND MMP-12 INHIBITION FOR TREATING SPINAL CORD INJURY OR RELATED INJURY TO NEUROLOGICAL TISSUE” (The University of Birmingham, priority 2020, published 2023).
# Columns and labels:
# [1] = system: mice with DC crush injury; test: Immunohistochemistry of scar tissue (laminin, Sema-3A, CS-56) at lesion site; assay type: in vivo, mouse; conditions: for attenuation of laminin immunoreactivity (scar tissue): 4 weeks after DC injury
# Description: After killing animals by exposure to rising concentrations of CO2, mice were intracardially perfused with 4% formaldehyde (TAAB Laboratories, Berkshire, UK) in 0.1M phosphate buffered saline (PBS). The lesion site+5 mm either side were dissected out, post-fixed in 4% formaldehyde and subjected to a graded series of sucrose solutions for cryoprotection. Spinal cords were blocked in OCT mounting compound (TAAB laboratories), sectioned longitudinally at 15 μm-thick using a cryostat (Brights Instruments, Huntingdon, UK) before being collected on charged glass slides (ThermoFisher Scientific, Loughborough, UK) and kept at −20° C. until required. Slides were numbered consecutively and sections from the middle of the lesion site were chosen for all immunohistochemical analyses, as described by previously (Surey S, Berry M, Logan A, Bicknell R, Ahmed Z. Differential cavitation, angiogenesis and wound-healing responses in injured mouse and rat spinal cords. Neuroscience 2014; 275: 62-80).
# Fluorescent immunohistochemistry was performed as described previously (S. Surey, M. Berry, A. Logan, R. Bicknell, Z. Ahmed, Differential cavitation, angiogenesis and wound-healing responses in injured mouse and rat spinal cords. Neuroscience 275, 62-80 (2014)). […] Laminin was detected at 4 weeks after DC injury and treatment using a rabbit polyclonal anti-laminin primary antibody (ab11575; 1:400 dilution, Abcam). Macrophages were detected with a rabbit polyclonal anti-CD68 antibody (ab1525212; 1:500 dilution, Abcam); microglia were detected using a rabbit polyclonal antibody to CD11b (ab128797, 1:500 dilution, Abcam); GFAP was detected using a polyclonal anti-GFAP antibody (SAB5700611, 1:400 dilution, Sigma) were all detected at 10 days after DC injury and treatment. Semaphorin-3A (Sema-3A) and chondroitin sulphate proteoglycan (CSPG) was detected using monoclonal anti-CS-56 antibody (C8035; 1:200 dilution, Sigma) at 7 days after injury. […] CTB labelled axons in the mouse were detected using a goat polyclonal anti-CTB antibody (#703; 1:1000 dilution, List Biological Labs) at 6 weeks after DC injury.
# All analyses were performed by investigators masked to the experimental groups. Relative fluorescent staining intensity was calculated by image analysis as described previously (Surey S, Berry M, Logan A, Bicknell R, Ahmed Z. Differential cavitation, angiogenesis and wound-healing responses in injured mouse and rat spinal cords. Neuroscience 2014; 275: 62-80). Briefly, photomicrographs taken at 5× magnification using the same standardized exposure settings throughout for each antibody were thresholded and the mean integrated intensity of pixels/unit area for each antibody was recorded Using ImageJ (NIH, USA) from n=12 mice/antibody.
# [2] = system: other members of the enzyme family; test: Selectivity to other members of the enzyme family; assay type: biochemical, human; conditions: relative to MMP-9 and MMP-12
# [3] = system: gelatinase enzyme activity; test: In situ zymography of DC-injured spinal cord sections; assay type: in vivo, mouse; conditions: oral and intrathecally-administered
# Description: Animals were killed by CO2 overdose intracardially perfused with warm PBS and unfixed tissues were harvested. […] In situ zymography was performed as described previously (Z. Ahmed, R. G. Dent, W. E. Leadbeater, C. Smith, M. Berry, A. Logan, Matrix metalloproteases: degradation of the inhibitory environment of the transected optic nerve and the scar by regenerating axons. Mol Cell Neurosci 28, 64-78 (2005)).
# Briefly, 15 μm-thick unfixed frozen longitudinal sections of the spinal cord were cut on a cryostat and incubated at 25° C., for 24 h in 50 mM Tris, pH 7.4, 150 mM NaCl, 5 mM CaCl2, 0.2 mM sodium azide and 40 ug/ml fluorescein conjugated DQ™ gelatin (Molecular Probes). Upon proteolysis, the highly fluoresceinated gelatin residues became separated and fluorescence resulted. Control sections were incubated either without DQ™ gelatin or incubated with 50 μM 1,10-phenanthroline (Sigma, Poole, UK) to block MMP activation. […] After final washes in PBS, sections were mounted in Vectashield with DAPI (Vector Laboratories, Loughborough, UK) and viewed with a Zeiss Axioplan 2 fluorescence microscope, equipped with an AxioCam HRc and running Axiovision software (Zeiss, Hertfordshire, UK).
# [4] = system: mice with DC crush injury; test: Spinal cord water content (oedema) after DC crush injury in mice; assay type: in vivo, mouse; conditions: IP, twice daily
# [5] = immediate or delayed by 24 h, 7 days (8 days delayed group)
Compound,attenuation of laminin immunoreactivity (scar tissue) ([1]; 24 hour delayed) [%],"attenuation of CS-56 immunoreactivity at the lesion site [1, 5] [%]","attenuation of Sema-3A immunoreactivity at the lesion site [1, 5] [%]",attenuation of laminin immunoreactivity (scar tissue) ([1]; immediately after injury) [%],selectivity to other members of the enzyme family [2] [fold],DC injury-induced gelatinase activity adjacent to the lesion site [3],SCI-induced oedema with tool inhibitors singly or in combination (FIG. 3D) [4]
C[C@]1(CS(=O)(=O)N2CC=C(C#Cc3cnc(C4CC4)nc3)CC2)NC(=O)NC1=O [AZD1236],> 77,> 81,> 84,> 80,> 350,completely suppressed,–
"CCN(CC)Cc1cc(C)c(N(Cc2ccccc2)S(=O)(=O)c2ccc(OC)cc2)c(C(=O)NO)c1 [MMP-9 Inhibitor I, reference compound]",–,–,–,–,–,–,suboptimal therapeutic benefits
